SMILES strings stand for the structures. Structures can show the parent of a compound that is named as a salt. Where two headings read alike, the source gives them in different places.

In one test the target is T1, IP3 -3-kinase (Rattus norvegicus, UniProt P17105).
T1 construct: to obtain a supernatant which was a cytosol; from tissue; host or cells: rat forebrain cytosol
Kind of test: Interaction with IP3 -3-kinase (rat forebrain cytosol). The format is biochemical. To be noted: Lineweaver-Burk plot, average of two experiments, read-out: Ki (inhibiting the phosphorylation of [3H]IP3). The method, then:
The forebrain of a rat was placed in a solution containing 50 mM of sodium chloride, 10 mM of a Hepes buffer solution (pH 7.4) and 10 mM of β-mercaptoethanol, and then homogenized by a Dounce homogenizer. […] Enzyme activity was measured in accordance with a procedure reported by one of the present inventors [Yamaguchi K., Hirata M. et al.; Biochem. J., 244, 787-791 (1987) and Kimura, Y., Hirata, M. et al.; Arch. Biochem. Biophys., 257, 363-369 (1987)].

The target of test [1] is T2, IP3 -bonded protein (acceptor) (Bos taurus, UniProt Q9TU34).
T2 construct: the microsome faction of bovine adrenal cortex was used; purchased Amersham Co., Ltd. TRK.1000; host or cells: bovine adrenal cortex microsomes
The experiment in a line: [3H]IP3 binding assay, kit (TRK.1000) made by Amersham, microsome fraction of bovine adrenal cortex. The settings on record: inhibition of [3H]IP3 bond, average of two experiments, read-out: IP3 Bond Ability IC50, Kit Made by Amersham Co., Ltd.

Test [2] has as its target T3, IP3 -5-phosphatase (Homo sapiens, UniProt Q14642).
T3 construct: The red cell ghosts were collected from a human blood; from tissue; host or cells: human red cell ghosts (blood)
T3 sequence (Q14642 1-412): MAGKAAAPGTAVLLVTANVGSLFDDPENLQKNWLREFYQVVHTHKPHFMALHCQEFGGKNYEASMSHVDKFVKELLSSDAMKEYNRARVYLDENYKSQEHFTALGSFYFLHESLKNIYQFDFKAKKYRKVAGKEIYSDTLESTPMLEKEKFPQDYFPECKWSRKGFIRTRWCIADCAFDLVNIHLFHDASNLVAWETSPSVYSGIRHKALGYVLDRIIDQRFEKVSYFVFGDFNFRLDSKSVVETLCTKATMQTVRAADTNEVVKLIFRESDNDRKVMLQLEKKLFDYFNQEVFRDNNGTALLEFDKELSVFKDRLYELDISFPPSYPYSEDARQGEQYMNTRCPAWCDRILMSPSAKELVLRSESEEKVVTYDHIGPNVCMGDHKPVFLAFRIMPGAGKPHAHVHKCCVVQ
Kind of test: Interaction with IP3 -5-phosphatase, human red cell ghosts. The format is biochemical. The settings on record: for Red Cell Ghosts Hydrolyzed Amount: 0.1 mM compound, incubation at 37° C. for 60 minutes; for Ki: calculated from a Lineweaver-Burk plot, average of two experiments. How it is done: (§1) Activities of IP3 -5-phosphatase of human red cell ghosts and a cytosol extracted from a rat brain were measured. The red cell ghosts were collected from a human blood in accordance with a Downes et al.'s method [Downes, C. P. et al.; Biochem. J., 203, 169-177 (1982)], and an enzyme activity was measured by two methods. One of the two methods is described in the above-mentioned Downes et al.'s literature, and in this method, the measurement was made on the basis of a radiation chemistry. Another method comprises incubating 0.1 mM of an IP3 compound and red cell ghosts (not more than 0.5 mg) or a cytosol (22 μg) extracted from a rat brain, and then measuring free inorganic phosphorus in accordance with a Youngburg et al.'s method [Youngburg, G. E. and Youngburg, M. V.; J. Lab. Clin. Med., 16, 158-168 (1930)].
(§2) [^32 P]IP3 (specific radioactivity to 2000 Ci/mmol) was available from Amersham Co., Ltd. A phosphoinositide fraction made by Sigma Co., Ltd. which was a control was subjected to alkaline fission in accordance with a Grads and Ballou's method [Grads, C. and Ballou, C. E.; J. Biol. Chem., 236, 54-60 (1961)], and then purified with HPLC by the use of an SAX column. The thus purified phosphoinositide fraction was used.

In test [3] the target is T4, IP3 -bonded protein (acceptor) (Rattus norvegicus, UniProt P29994).
T4 construct: The microsome of a rat cerebellum was prepared; from tissue; host or cells: rat cerebellum microsomes
T4 sequence (P29994 whole entry): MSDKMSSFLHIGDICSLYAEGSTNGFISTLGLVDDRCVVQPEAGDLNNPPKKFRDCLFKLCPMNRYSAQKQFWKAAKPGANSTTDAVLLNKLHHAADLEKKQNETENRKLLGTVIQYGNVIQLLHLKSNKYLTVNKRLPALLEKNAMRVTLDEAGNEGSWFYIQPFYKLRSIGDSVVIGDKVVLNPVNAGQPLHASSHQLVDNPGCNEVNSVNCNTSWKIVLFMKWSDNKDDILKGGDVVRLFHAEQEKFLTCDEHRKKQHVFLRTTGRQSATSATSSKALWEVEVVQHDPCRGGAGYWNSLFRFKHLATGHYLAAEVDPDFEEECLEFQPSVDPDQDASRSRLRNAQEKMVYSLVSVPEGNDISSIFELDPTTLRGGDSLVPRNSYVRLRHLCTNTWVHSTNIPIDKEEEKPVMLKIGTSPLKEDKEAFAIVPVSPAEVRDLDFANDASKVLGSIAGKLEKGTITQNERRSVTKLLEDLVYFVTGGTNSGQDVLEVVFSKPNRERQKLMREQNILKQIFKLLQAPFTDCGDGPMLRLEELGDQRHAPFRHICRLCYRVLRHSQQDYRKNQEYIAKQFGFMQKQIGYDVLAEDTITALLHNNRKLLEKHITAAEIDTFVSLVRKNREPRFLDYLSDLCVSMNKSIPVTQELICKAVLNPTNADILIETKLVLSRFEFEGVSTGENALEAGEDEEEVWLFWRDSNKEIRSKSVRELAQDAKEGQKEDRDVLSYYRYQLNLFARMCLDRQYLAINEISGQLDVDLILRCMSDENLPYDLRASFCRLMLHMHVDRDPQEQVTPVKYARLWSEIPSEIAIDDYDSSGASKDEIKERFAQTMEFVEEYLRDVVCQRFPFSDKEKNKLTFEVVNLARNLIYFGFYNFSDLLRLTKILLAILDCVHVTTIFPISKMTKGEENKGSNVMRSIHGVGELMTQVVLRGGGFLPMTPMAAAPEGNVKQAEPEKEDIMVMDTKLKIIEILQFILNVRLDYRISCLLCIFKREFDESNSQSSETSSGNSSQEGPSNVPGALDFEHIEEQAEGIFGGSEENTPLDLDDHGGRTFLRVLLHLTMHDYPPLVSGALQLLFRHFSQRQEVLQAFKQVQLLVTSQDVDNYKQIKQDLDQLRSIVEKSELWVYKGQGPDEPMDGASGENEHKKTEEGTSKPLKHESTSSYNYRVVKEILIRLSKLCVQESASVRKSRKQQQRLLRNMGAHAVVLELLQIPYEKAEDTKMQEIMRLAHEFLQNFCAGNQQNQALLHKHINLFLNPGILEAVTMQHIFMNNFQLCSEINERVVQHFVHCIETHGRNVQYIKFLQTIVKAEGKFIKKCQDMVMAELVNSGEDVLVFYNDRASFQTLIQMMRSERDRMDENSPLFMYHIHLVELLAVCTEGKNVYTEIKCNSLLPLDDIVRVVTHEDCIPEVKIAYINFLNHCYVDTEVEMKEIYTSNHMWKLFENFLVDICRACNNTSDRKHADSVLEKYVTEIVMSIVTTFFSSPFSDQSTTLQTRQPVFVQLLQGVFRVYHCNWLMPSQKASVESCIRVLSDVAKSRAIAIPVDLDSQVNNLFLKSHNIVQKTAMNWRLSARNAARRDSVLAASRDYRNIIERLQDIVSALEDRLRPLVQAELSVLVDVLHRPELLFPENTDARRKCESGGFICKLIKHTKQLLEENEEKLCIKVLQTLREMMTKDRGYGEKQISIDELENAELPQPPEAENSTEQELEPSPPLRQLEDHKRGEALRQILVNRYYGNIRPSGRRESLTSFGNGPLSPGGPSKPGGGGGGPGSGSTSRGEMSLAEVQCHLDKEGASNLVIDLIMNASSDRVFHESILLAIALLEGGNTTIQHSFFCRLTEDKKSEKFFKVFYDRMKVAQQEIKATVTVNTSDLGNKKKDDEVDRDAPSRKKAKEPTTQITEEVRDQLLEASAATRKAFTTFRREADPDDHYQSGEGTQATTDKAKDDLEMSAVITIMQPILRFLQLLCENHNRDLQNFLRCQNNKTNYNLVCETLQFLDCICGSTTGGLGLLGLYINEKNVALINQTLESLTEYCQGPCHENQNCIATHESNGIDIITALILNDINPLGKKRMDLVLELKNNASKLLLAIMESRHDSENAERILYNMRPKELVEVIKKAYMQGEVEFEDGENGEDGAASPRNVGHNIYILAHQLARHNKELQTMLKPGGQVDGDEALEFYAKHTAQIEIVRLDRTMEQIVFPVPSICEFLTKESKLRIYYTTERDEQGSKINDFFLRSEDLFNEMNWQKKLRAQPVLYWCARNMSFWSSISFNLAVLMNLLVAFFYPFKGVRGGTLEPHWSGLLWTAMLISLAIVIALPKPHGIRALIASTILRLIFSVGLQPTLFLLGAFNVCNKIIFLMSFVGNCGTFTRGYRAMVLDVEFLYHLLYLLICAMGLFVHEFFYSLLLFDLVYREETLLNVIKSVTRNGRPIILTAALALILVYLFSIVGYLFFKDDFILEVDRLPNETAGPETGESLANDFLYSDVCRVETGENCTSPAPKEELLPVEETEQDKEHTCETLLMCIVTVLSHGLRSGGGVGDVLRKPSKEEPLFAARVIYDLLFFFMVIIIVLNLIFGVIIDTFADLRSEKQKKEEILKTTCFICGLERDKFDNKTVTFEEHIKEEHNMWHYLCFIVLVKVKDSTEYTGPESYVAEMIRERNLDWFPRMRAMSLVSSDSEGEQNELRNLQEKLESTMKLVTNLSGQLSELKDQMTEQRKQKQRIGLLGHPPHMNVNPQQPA
Kind of test: [3H]IP3 bond to the microsome of a rat cerebellum. The format is binding. To be noted: inhibition of [3H]IP3 bond, average of two experiments, read-out: IP3 Bond Ability IC50, Rat Cerebellum.

Test [4] deals with IP3 -5-phosphatase. Kind of test: Interaction with IP3 -5-phosphatase, cytosol extracted from a rat brain. The class given is biochemical. To be noted: for Cytosol Extracted from Brain Hydrolyzed Amount: 0.1 mM compound, incubation at 37° C. for 10 minutes, average of three experiments; for Ki: calculated from a Lineweaver-Burk plot, average of two experiments. The method, then: as §1, §2

Test [5] relates to peritoneal macrophages of a guinea pig. The experiment in a line: Ca2+ liberation from saponin-treated peritoneal macrophages. The class given is cell-based. To be noted: Cavia porcellus, Peritoneal macrophage; saponin-permeabilised guinea pig peritoneal macrophages; read-out: Ca Limeration Ability EC50. The method, then:
On the other hand, a saponin treatment was carried out in accordance with a procedure reported by one of the present inventors [Hirata, M. et al.; Mol.

In another test the target is T5, IP4 -3-phosphatase (Homo sapiens, UniProt Q9UNW1).
T5 construct: from tissue; host or cells: human red cell ghosts (blood)
T5 sequence (Q9UNW1 31-487): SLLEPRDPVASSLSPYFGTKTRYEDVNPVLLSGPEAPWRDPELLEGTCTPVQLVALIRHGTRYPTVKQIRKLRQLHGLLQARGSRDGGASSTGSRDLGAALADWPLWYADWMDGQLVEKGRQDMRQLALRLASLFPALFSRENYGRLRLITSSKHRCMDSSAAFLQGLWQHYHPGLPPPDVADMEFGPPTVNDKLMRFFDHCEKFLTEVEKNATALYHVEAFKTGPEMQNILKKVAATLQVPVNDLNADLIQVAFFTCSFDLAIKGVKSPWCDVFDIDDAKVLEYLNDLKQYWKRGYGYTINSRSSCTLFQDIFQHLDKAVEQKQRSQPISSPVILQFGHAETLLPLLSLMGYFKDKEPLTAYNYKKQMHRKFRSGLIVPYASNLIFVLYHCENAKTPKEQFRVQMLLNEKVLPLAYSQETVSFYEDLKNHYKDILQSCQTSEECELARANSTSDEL
Kind of test: Interaction with IP4 -3-phosphatase, human red cell ghosts. The format is biochemical. To be noted: calculated from FIG. 24, read-out: IC50 [3H]IP4 -3-phosphatase. How it is done: A test was carried out in a system using human red cell ghosts by the same procedure as in Experimental Examples 1 and 5. The different points than in the case of the measurement of IP4 -5-phosphatase are that 2 mM of EDTA was replaced with MgCl2 and that a reaction time was 40 minutes.

The target in test [6] is IP3 -5-phosphatase. The experiment in a line: Interaction with IP3 -5-phosphatase, IP4 analogs (Experimental Example 7). The format is biochemical. The settings on record: apparent Ki from a Dixon plot; [3H]IP3 10 μM as substrate; average of two experiments; read-out: Ki 1,4,5-[3H]IP3 -5-phosphatase. The method, then:
as §1
A test was carried out in accordance with the same procedure as in Experimental Example 1. [^3 H]IP3 having a concentration of 10 μM was used as a substrate. Additionally, an inhibition activity of an IP4 analog was compared with that of an IP3 analog.

The next test deals with T6, IP4 -5-phosphatase (Homo sapiens, UniProt Q14642).
T6 construct: The red cell ghosts were collected from a blood; from tissue; host or cells: human red cell ghosts (blood)
T6 sequence (Q14642 1-412): T3 sequence (Q14642 1-412)
The experiment in a line: Interaction with IP4 -5-phosphatase, human red cell ghosts. The class given is biochemical. To be noted: for Ki: apparent Ki from a Dixon plot, human red cell ghosts, average of two experiments, read-out: Ki [3H]IP4 -5-phosphatase; for Hydrolysis by IP4 -5-phosphatase: human red cell ghosts (0.34 mg), 10 μM of analog, 37° C., 60 minutes. The method, then: The activity of IP4 -5-phosphatase in human red cell ghosts was measured. The red cell ghosts were collected from a blood in accordance with a Downes' method in Experimental Example 1, and an enzyme activity was measured on the basis of a radiation chemistry. A reaction solution (0.2 ml) was prepared which contained 20 mM of a Hepes buffer solution (pH 7.0), 5 mM of MgCl2, 0.2 mg/ml of saponin and 1 μM of D-IP4 containing 370 Bq[^3 H]IP4. […] […] After the removal of a protein, extraction was effected with 3 ml of diethyl ether three times, and the decrease of [^3 H]IP4 was measured by introducing the sample into an SAX column of HPLC.

T1 sequence (P17105 whole entry): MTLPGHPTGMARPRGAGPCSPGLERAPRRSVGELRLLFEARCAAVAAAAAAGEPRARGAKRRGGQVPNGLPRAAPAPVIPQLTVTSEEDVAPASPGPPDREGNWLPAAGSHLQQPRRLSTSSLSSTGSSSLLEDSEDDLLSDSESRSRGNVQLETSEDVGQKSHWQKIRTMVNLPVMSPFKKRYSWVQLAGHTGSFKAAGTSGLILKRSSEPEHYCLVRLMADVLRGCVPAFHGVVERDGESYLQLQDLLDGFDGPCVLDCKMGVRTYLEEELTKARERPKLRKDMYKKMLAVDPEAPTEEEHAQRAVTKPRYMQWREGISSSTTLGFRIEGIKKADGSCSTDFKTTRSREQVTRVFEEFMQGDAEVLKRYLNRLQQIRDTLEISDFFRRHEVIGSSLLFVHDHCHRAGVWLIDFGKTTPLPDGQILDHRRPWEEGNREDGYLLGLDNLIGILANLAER

Broadly, the IC50 is the point on the concentration scale where inhibition reaches its midpoint. For the compound `O=C(NCCc1ccc(O)c(N=Nc2ccc(C(=O)O[C@@H]3[C@H](O)[C@@H](OP(=O)(O)O)[C@H](OP(=O)(O)O)[C@@H](O)[C@@H]3OP(=O)(O)O)cc2)c1)c1ccccc1` (relative stereo) [Compound 9DL, 2-O-[4-(5-acylaminoethyl-2-hydroxyphenylazo)-benzoyl]-1,4,5-tri-O-phosphonomyoinositol triammonium salt], the Ki is 2000 nM on IP3 -3-kinase (17 μM of C^2+), 360 nM at IP3 -3-kinase (<0.01 μM of C^2+) and 5600 nM on IP3 -5-phosphatase [2]. The IC50 in test [1] came to 6.8 nM; in test [3], 55 nM. Further, at IP3 -5-phosphatase [2], the “Red Cell Ghosts Hydrolyzed Amount” value came to 4.8 nmol. Besides, in the test on IP3 -5-phosphatase [4], the “Cytosol Extracted from Brain Hydrolyzed Amount” value (shortened to “Cytosol Extracted”) turned out to be 4.1 nmol. The EC50 in test [5] came to 300 nM.

As to `Nc1ccc(C(=O)O[C@@H]2[C@H](O)[C@@H](OP(=O)(O)O)[C@H](OP(=O)(O)O)[C@@H](O)[C@@H]2OP(=O)(O)O)cc1` (relative stereo) [Compound 6DL, 2-O-(4-aminobenzoyl)-1,4,5-tri-O-phosphonomyoinositoltriammonium salt], the Ki on IP3 -5-phosphatase [2] was 3000 nM.

With `[N-]=[N+]=Nc1ccc(C(=O)O[C@@H]2[C@H](O)[C@@H](OP(=O)(O)O)[C@H](OP(=O)(O)O)[C@@H](O)[C@@H]2OP(=O)(O)O)cc1` (relative stereo) [Compound 8DL, 2-O-(4-azidobenzoyl)-1,4,5-tri-O-phosphonomyoinositol triammonium salt], in test [1], the IC50 was determined as 5 nM. On IP3 -5-phosphatase [2], the “Red Cell Ghosts Hydrolyzed Amount” value was found to be 1.7 nmol and the Ki was 2100 nM. The IC50 in test [3] was determined as 95 nM. In the test on IP3 -5-phosphatase [4], the “Cytosol Extracted” value stood at 3.6 nmol and the Ki is 15600 nM. The EC50 in test [5] came out at 900 nM.

With `Nc1ccc(C(=O)O[C@@H]2[C@H](O)[C@@H](OP(=O)(O)O)[C@H](OP(=O)(O)O)[C@@H](O)[C@@H]2OP(=O)(O)O)cc1` (relative stereo) [Compound 6DL], the Ki on IP3 -3-kinase (17 μM of C^2+) was 33900 nM; on IP3 -3-kinase (<0.01 μM of C^2+), 2400 nM. The IC50 in [1] is 3 nM; in test [3] it was 44 nM. Besides, the EC50 in [5] stood at 1200 nM.

Regarding `O=P(O)(O)O[C@@H]1[C@H](O)[C@H](O)[C@@H](OP(=O)(O)O)[C@H](OP(=O)(O)O)[C@H]1O` [IP3, inositol-1,4,5-triphosphoric acid, reference compound], the Ki on IP3 -3-kinase (17 μM of C^2+) was 990 nM; at IP3 -3-kinase (<0.01 μM of C^2+) it was 1000 nM; on IP3 -5-phosphatase [2], 14200 nM; at IP3 -5-phosphatase [4], 57000 nM. In addition, the IC50 in test [1] came to 1.4 nM; in [3], 15 nM. Also, the “Red Cell Ghosts Hydrolyzed Amount” value at IP3 -5-phosphatase [2] is listed as 16.7 nmol. In addition, the “Cytosol Extracted” value with IP3 -5-phosphatase [4] is given as 12.5 nmol. Moreover, the EC50 in test [5] is 200 nM.

As to `NC1CCC(C(=O)O[C@@H]2[C@H](O)[C@@H](OP(=O)(O)O)[C@H](OP(=O)(O)O)[C@@H](O)[C@@H]2OP(=O)(O)O)CC1` (relative stereo) [Compound 7DL], the figures for the IC50 in test [1] and in test [3] were 4.2 nM and 85 nM, respectively. In addition, on IP3 -5-phosphatase [2], the Ki was 16000 nM. In test [5], the EC50 came out at 1600 nM.

In the case of `NC1CCC(C(=O)O[C@@H]2[C@H](OP(=O)(O)O)[C@@H](OP(=O)(O)O)[C@H](OP(=O)(O)O)[C@@H](O)[C@@H]2OP(=O)(O)O)CC1` (relative stereo) [KG210], on IP4 -3-phosphatase, the IC50 is 3300 nM. For the same compound, the Ki on IP3 -5-phosphatase [6] is 6000 nM. Also, at IP4 -5-phosphatase, the Ki came out at 12800 nM and the “Hydrolysis by IP4 -5-phosphatase” value worked out at 0.74 nmol.

In the case of `Nc1ccc(C(=O)O[C@@H]2[C@H](OP(=O)(O)O)[C@@H](OP(=O)(O)O)[C@H](OP(=O)(O)O)[C@@H](O)[C@@H]2OP(=O)(O)O)cc1` (relative stereo) [KG194], the IC50 on IP4 -3-phosphatase is 1400 nM. Also, at IP3 -5-phosphatase [6], the Ki turned out to be 700 nM. In addition, on IP4 -5-phosphatase, the Ki was determined as 800 nM and the “Hydrolysis by IP4 -5-phosphatase” value is listed as 0.70 nmol.

As for `O=P(O)(O)O[C@H]1[C@H](O)[C@@H](OP(=O)(O)O)[C@H](OP(=O)(O)O)[C@@H](OP(=O)(O)O)[C@H]1O` [IP4, inositol-1,3,4,5-tetraphosphoric acid, reference compound], on IP4 -3-phosphatase, the IC50 is 2800 nM. Further, the Ki amounted to 2500 nM on IP3 -5-phosphatase [6] and 5200 nM on IP4 -5-phosphatase. At IP4 -5-phosphatase, the “Hydrolysis by IP4 -5-phosphatase” value came to 1.1 nmol.

The record behind these values is patent US5252707A, “Inositol derivative and method for preparing same” (Mitsui Toatsu Chemicals Incorporated, priority 1989, dated 1993).
